Measured values: patent US7368578B2, “Five-membered heterocyclic compounds” (Takeda Pharmaceutical Company Limited, priority 2002, dated 2008)

Compared with `CCc1nc(/C=C/c2cn(-c3ccccc3)nc2OCc2ccc(OCc3nc(-c4ccc(C(=O)O)o4)oc3C)c(OC)c2)cs1` [Example 242, 5-[4-({4-[({4-[(E)-2-(2-ethyl-1,3-thiazol-4-yl)ethenyl]-1-phenyl-1H-pyrazol-3-yl}oxy)methyl]-2-methoxyphenoxy}methyl)-5-methyl-1,3-oxazol-2-yl]-2-furancarboxylic acid], `CCOC(=O)c1ccc(-c2nc(COc3ccc(COc4nn(-c5ccccc5)cc4/C=C/c4csc(CC)n4)cc3OC)c(C)o2)o1` [Example 244 (E form), ethyl 5-[4-({4-[({4-[(E)-2-(2-ethyl-1,3-thiazol-4-yl)ethenyl]-1-phenyl-1H-pyrazol-3-yl}oxy)methyl]-2-methoxyphenoxy}methyl)-5-methyl-1,3-oxazol-2-yl]-2-furancarboxylate] is lower in melting point: 154 to 155 °C for the first, 150 to 151 °C for the second.

First: CCOC(=O)c1ccc(-c2nc(COc3ccc(COc4nn(-c5ccccc5)cc4C=O)cc3OC)c(C)o2)o1 [Example 243, ethyl 5-{4-[(4-{[(4-formyl-1-phenyl-1H-pyrazol-3-yl)oxy]methyl}-2-methoxyphenoxy)methyl]-5-methyl-1,3-oxazol-2-yl}-2-furancarboxylate]
Second: CCOC(=O)Cc1ccc(-c2nc(COc3ccc(COc4nn(-c5ccccc5)cc4C=O)cc3OC)c(C)o2)cc1 [Example 246, ethyl (4-{4-[(4-{[(4-formyl-1-phenyl-1H-pyrazol-3-yl)oxy]methyl}-2-methoxyphenoxy)methyl]-5-methyl-1,3-oxazol-2-yl}phenyl)acetate]
The melting point of the first is lower: 143 to 145 °C for the first, 157 to 158 °C for the second.

Compared with `CCOC(=O)c1ccc(-c2nc(COc3ccc(COc4nn(-c5ccccc5)cc4/C=C\c4csc(CC)n4)cc3OC)c(C)o2)o1` [Example 244 (Z form), ethyl 5-[4-({4-[({4-[(Z)-2-(2-ethyl-1,3-thiazol-4-yl)ethenyl]-1-phenyl-1H-pyrazol-3-yl}oxy)methyl]-2-methoxyphenoxy}methyl)-5-methyl-1,3-oxazol-2-yl]-2-furancarboxylate], `CCOC(=O)Cc1cccc(-c2nc(COc3ccc(COc4nn(-c5ccccc5)cc4C=O)cc3OC)c(C)o2)c1` [Example 253, ethyl (3-{4-[(4-{[(4-formyl-1-phenyl-1H-pyrazol-3-yl)oxy]methyl}-2-methoxyphenoxy)methyl]-5-methyl-1,3-oxazol-2-yl}phenyl)acetate] is higher in melting point: 133 to 135 °C for the first, 145 to 146 °C for the second.

Compared with `COc1cc(C(=O)Nc2nn(-c3ccccc3)cc2C=O)ccc1OCc1nc(-c2ccccc2)oc1C` [Example 245, N-(4-formyl-1-phenyl-1H-pyrazol-3-yl)-3-methoxy-4-[(5-methyl-2-phenyl-1,3-oxazol-4-yl)methoxy]benzamide], `COC(=O)c1cc(-c2nc(COc3ccc(COc4nn(-c5ccccc5)cc4C=O)cc3OC)c(C)o2)ccc1OC` [Example 256, methyl 5-{4-[(4-{[(4-formyl-1-phenyl-1H-pyrazol-3-yl)oxy]methyl}2-methoxyphenoxy)methyl]-5-methyl-1,3-oxazol-2-yl}-2-methoxybenzoate] is lower in melting point: 234 to 235 °C for the first, 165 to 166 °C for the second.

First: COC(=O)c1cc(-c2nc(COc3ccc(COc4nn(-c5ccccc5)cc4C=O)cc3OC)c(C)o2)ccc1OS(C)(=O)=O [Example 255, methyl 5-{4-[(4-{[(4-formyl-1-phenyl-1H-pyrazol-3-yl)oxy]methyl}-2-methoxyphenoxy)methyl]-5-methyl-1,3-oxazol-2-yl}-2-(methanesulfonyloxy)benzoate]
Second: CCOC(=O)/C=C/c1nc(-c2ccccc2)oc1COc1ccc(OCc2nc(-c3ccccc3)oc2C)cc1 [Example 258, ethyl (2E)-3-[5-({4-[(5-methyl-2-phenyl-1,3-oxazol-4-yl)methoxy]phenoxy}methyl)-2-phenyl-1,3-oxazol-4-yl]-2-propenoate]
The melting point of the first is higher: 136 to 137 °C for the first, 107 to 108 °C for the second.
